# Assay results published in ChEMBL document CHEMBL1201862, “PubChem BioAssay data set” (2004).
#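 Method: 48-hour compound exposure of cells in 96-well plates, five concentrations, linear interpolation of endpoints. GI50: concentration for 50% inhibition of growth.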 Active and inactive are the calls of the source. No stated cut-off is given here; in the data, active = GI50 up to about 1.1 µM and inactive = higher.
# How the values were obtained:
# Test in all cases: NCI tumour cell line growth inhibition, 48 h
# SNB-19 = tested on: SNB-19
# SK-MEL-5 = tested on: SK-MEL-5
# RPMI-8226 = tested on: RPMI-8226
# OVCAR-3 = tested on: OVCAR-3
# COLO 205 = tested on: COLO 205
# HOP-62 = tested on: HOP-62
# HL-60 = tested on: HL-60
# A498 = tested on: A498
# SW-620 = tested on: SW-620
# HCT-15 = tested on: HCT-15
# SNB-75 = tested on: SNB-75
# HOP-92 = tested on: HOP-92
# MOLT-4 = tested on: MOLT-4
# 786-0 = tested on: 786-0
# M14 = tested on: M14
# Malme-3M = tested on: Malme-3M
# UO-31 = tested on: UO-31
# NCI/ADR-RES = tested on: NCI/ADR-RES
# PC-3 = tested on: PC-3
# MDA-MB-231 = tested on: MDA-MB-231
Compound,GI50 (SNB-19),GI50 (SK-MEL-5),GI50 (RPMI-8226),GI50 (OVCAR-3),GI50 (COLO 205),GI50 (HOP-62),GI50 (HL-60),GI50 (A498),GI50 (SW-620),GI50 (HCT-15) [µM],GI50 (SNB-75),GI50 (HOP-92),GI50 (MOLT-4),GI50 (786-0),GI50 (M14),GI50 (Malme-3M),GI50 (UO-31),GI50 (NCI/ADR-RES),GI50 (PC-3),GI50 (MDA-MB-231)
O=C1OC(O)c2cc3c(cc21)OCO3 (configuration not stated),> 100 µM (inactive),> 100 µM (inactive),> 100 µM (inactive),> 100 µM (inactive),> 100 µM (inactive),> 100 µM (inactive),> 100 µM (inactive),> 100 µM (inactive),> 100 µM (inactive),> 100,> 100 µM (inactive),> 100 µM (inactive),> 100 µM (inactive),> 100 µM (inactive),> 100 µM (inactive),> 100 µM (inactive),> 100 µM (inactive),,,
O=C1C2=C(c3ccccc31)C(c1ccccc1Cl)N1C(=O)CCSC1=N2 (configuration not stated),> 100 µM (inactive),> 100 µM (inactive),81.5 µM (inactive),> 100 µM (inactive),> 100 µM (inactive),> 100 µM (inactive),> 100 µM (inactive),> 100 µM (inactive),> 100 µM (inactive),> 100,55.2 µM (inactive),30.1 µM (inactive),84.7 µM (inactive),> 100 µM (inactive),> 100 µM (inactive),> 100 µM (inactive),58.1 µM (inactive),,,
Cc1c(C(=O)/C=C/C=C/c2ccccc2)[n+]([O-])c2ccccc2[n+]1[O-],35.5 µM (inactive),19.9 µM (inactive),> 10 µM (inactive),26.1 µM (inactive),35 µM (inactive),25.3 µM (inactive),26.1 µM (inactive),51.8 µM (inactive),22.4 µM (inactive),15.2,34.2 µM (inactive),18 µM (inactive),40.5 µM (inactive),21.9 µM (inactive),19.8 µM (inactive),28.9 µM (inactive),38.4 µM (inactive),,,
Cc1cc(=O)oc2c3c(ccc12)OC(c1ccc(Br)cc1)CC3=O (configuration not stated),5.31 µM (inactive),11.6 µM (inactive),4.04 µM (inactive),10.8 µM (inactive),12.7 µM (inactive),7.69 µM (inactive),,,4.2 µM (inactive),7.48,3.02 µM (inactive),,1.79 µM (inactive),5.48 µM (inactive),10.4 µM (inactive),6.43 µM (inactive),10.3 µM (inactive),12.5 µM (inactive),6.25 µM (inactive),7.35 µM (inactive)
O=C(COc1ccc(/C=C/C(=O)c2ccc(Cl)cc2)cc1)Nc1c(Cl)cccc1Cl,> 100 µM (inactive),48.3 µM (inactive),30.2 µM (inactive),> 100 µM (inactive),> 100 µM (inactive),> 100 µM (inactive),0.0607 µM (active),> 100 µM (inactive),> 100 µM (inactive),> 100,56.4 µM (inactive),19.1 µM (inactive),10.7 µM (inactive),> 100 µM (inactive),> 100 µM (inactive),> 100 µM (inactive),> 100 µM (inactive),,,
N#Cc1nc(-c2cnccn2)oc1N,> 100 µM (inactive),> 100 µM (inactive),49.7 µM (inactive),,,> 100 µM (inactive),> 100 µM (inactive),> 100 µM (inactive),> 100 µM (inactive),> 100,> 100 µM (inactive),> 100 µM (inactive),> 100 µM (inactive),> 100 µM (inactive),> 100 µM (inactive),,62.5 µM (inactive),,> 100 µM (inactive),> 100 µM (inactive)
C/C=C1\Oc2ccc(OC)cc2S1(=O)=O,> 100 µM (inactive),> 100 µM (inactive),> 100 µM (inactive),> 100 µM (inactive),> 100 µM (inactive),> 100 µM (inactive),> 100 µM (inactive),> 100 µM (inactive),> 100 µM (inactive),> 100,> 100 µM (inactive),> 100 µM (inactive),> 100 µM (inactive),> 100 µM (inactive),> 100 µM (inactive),> 100 µM (inactive),> 100 µM (inactive),,,
NNC(=O)c1c(-c2cccnc2)cnc2ccccc12,> 100 µM (inactive),> 100 µM (inactive),> 100 µM (inactive),> 100 µM (inactive),> 100 µM (inactive),> 100 µM (inactive),> 100 µM (inactive),,> 100 µM (inactive),> 100,45.6 µM (inactive),> 100 µM (inactive),> 100 µM (inactive),> 100 µM (inactive),> 100 µM (inactive),> 100 µM (inactive),> 100 µM (inactive),> 100 µM (inactive),> 100 µM (inactive),
C=CCOC(=O)CC[C@H](NC(=O)[C@@H](CCC(F)(F)F)Cc1ccc(O)cc1)C(=O)OCC=C,> 100 µM (inactive),18.5 µM (inactive),30.4 µM (inactive),,21.3 µM (inactive),> 100 µM (inactive),85.9 µM (inactive),,> 100 µM (inactive),> 100,28.8 µM (inactive),67.1 µM (inactive),27.7 µM (inactive),86.9 µM (inactive),21.3 µM (inactive),20.2 µM (inactive),> 100 µM (inactive),> 100 µM (inactive),,
CC(C)CC1CC2C(=O)N(c3ccccc3)C(=O)C2c2[nH]c3ccccc3c21 (configuration not stated),40.9 µM (inactive),> 80.9 µM (inactive),29.2 µM (inactive),13.1 µM (inactive),31 µM (inactive),18.8 µM (inactive),15.3 µM (inactive),> 36.3 µM (inactive),23.8 µM (inactive),17.3,13.1 µM (inactive),18.6 µM (inactive),17.9 µM (inactive),66.5 µM (inactive),28.2 µM (inactive),9.73 µM (inactive),26.4 µM (inactive),,,
N#CC1(C#N)C2C=CC(c3coc4cccc2c34)C1(C#N)C#N (configuration not stated),18.8 µM (inactive),15.4 µM (inactive),4.86 µM (inactive),15.7 µM (inactive),1.9 µM (inactive),22.6 µM (inactive),1.45 µM (inactive),20.4 µM (inactive),1.61 µM (inactive),7.08,19.4 µM (inactive),18 µM (inactive),1.67 µM (inactive),20.5 µM (inactive),12.7 µM (inactive),7.05 µM (inactive),12.8 µM (inactive),,,
COc1ccc(C2=C(OC(C)=O)c3cccn3-c3ccc(Cl)cc3S2)cc1,,4.93 µM (inactive),2.37 µM (inactive),,5.66 µM (inactive),3.97 µM (inactive),1.59 µM (inactive),,4.06 µM (inactive),3.62,3.44 µM (inactive),1.3 µM (inactive),2.34 µM (inactive),3.85 µM (inactive),5.07 µM (inactive),6.58 µM (inactive),,,4.69 µM (inactive),3.72 µM (inactive)
CC1(C)C(=O)C(O)=CC2C1=CCC1C2(C)C(=O)CC2(C)C(C(C)(O)C(=O)CC(O)C(C)(C)O)C(O)CC12C (configuration not stated),3.13 µM (inactive),2.84 µM (inactive),3.4 µM (inactive),3.28 µM (inactive),3.67 µM (inactive),4.63 µM (inactive),3.17 µM (inactive),2 µM (inactive),3.57 µM (inactive),3.18,0.989 µM (active),2.38 µM (inactive),17.1 µM (inactive),2.45 µM (inactive),3.54 µM (inactive),3.54 µM (inactive),2.02 µM (inactive),,,
CC[C@@]1(O)C(=O)OCc2c1cc1n(c2=O)Cc2c-1nc1ccccc1c2/C=N\NC(=O)C(N)Cc1ccc(O)cc1 (some centres not stated),0.267 µM (active),0.638 µM (active),0.867 µM (active),,12.6 µM (inactive),0.248 µM (active),0.146 µM (active),0.813 µM (active),1.52 µM (inactive),4.32,0.415 µM (active),1.27 µM (inactive),0.0658 µM (active),0.374 µM (active),0.587 µM (active),1.35 µM (inactive),0.619 µM (active),1.33 µM (inactive),,15.8 µM (inactive)
COc1cccc2c1C(=O)c1c(O)c3c(c(O)c1C2=O)C[C@@](O)(C(C)=O)C[C@@H]3OC1OC(C)C(O)C(N)C1Br (some centres not stated),0.0412 µM (active),0.0689 µM (active),0.0156 µM (active),0.136 µM (active),0.418 µM (active),0.0147 µM (active),0.00971 µM (active),0.133 µM (active),0.0177 µM (active),0.132,0.0029 µM (active),0.0486 µM (active),0.001 µM (active),0.0404 µM (active),0.0681 µM (active),0.0769 µM (active),0.0953 µM (active),,0.138 µM (active),0.233 µM (active)
CCOC(=O)Nc1nn(C)/c(=N/Cc2ccccc2)s1,> 100 µM (inactive),> 100 µM (inactive),> 100 µM (inactive),> 100 µM (inactive),> 100 µM (inactive),> 100 µM (inactive),> 100 µM (inactive),> 100 µM (inactive),> 100 µM (inactive),> 100,> 100 µM (inactive),> 100 µM (inactive),> 100 µM (inactive),> 100 µM (inactive),,,33.4 µM (inactive),,> 100 µM (inactive),> 100 µM (inactive)
